From patent US12150975B2, “Therapeutic combinations to treat red blood cell disorders” (HARTIS-PHARMA SA, priority 2016, dated 2024)

Key:
Assay type in all cases: cell-based, human
[1] = system: RBC from healthy subjects; test: Reactive oxygen species (ROS) in RBC measured as Median Fluorescence Intensity by flow cytometry; conditions: 20 min incubation
Procedure: Blood was collected from four healthy control subjects using citrate as anticoagulant. After low speed centrifugation, the RBC pellet was washed with isotonic phosphate buffered saline (PBS) and re-suspended in PBS (hematocrite 20%). The RBC were prepared as described in Example 7 and the effect of HDL with or without lutein on the oxidative stress status of RBC was determined using RBC from healthy subjects incubated for 20 min in presence of 100 μM HDL isolated from human plasma (Sigma ref L-1567) in presence or absence of 1 μM or 10 μM lutein (Bertin pharma ref. 1001081). Reactive oxygen species (ROS) were measured as Median Fluorescence Intensity (MFI) by flow cytometry similarly to Amer et al., 2003, Eur J Haematol, 70(2):84-90.

RBC from SCD subjects = test: RBC sensitivity to cholesterol depletion: hemolysis and membrane deformability by ektacytometry, SCD RBC; conditions: 10 mM methyl-beta-cyclodextrine, 20 min at 37° C., RBC from 4 SCD subjects
Procedure: (§1) Blood was collected from four healthy control subjects using citrate as anticoagulant. After low speed centrifugation, the RBC pellet was washed with isotonic phosphate buffered saline (PBS) and re-suspended in PBS (hematocrite 20%).
(§2) To confirm the difference in membrane cholesterol in RBC from SCD compared to healthy subjects, RBC's sensitivity to the cholesterol depleting agent methyl-beta-cyclodextrine was assessed. RBCs were incubated for 20 min at 37° C. in the presence of 2.5 mM or 10 mM methyl-beta-cyclodextrine (Sigma ref. C4555-5G) as described by Motayama et al., 2009, Biol. Pharm. Bull., 32(4) 700-705. RBC membrane deformability was assessed by ektacytometry (Mechatronics) as described by Renoux et al., 2016, Clin Hemorheol Microcirc., 62(2):173-9 at shear rate of 3 Pa and 30 Pa.

RBC from healthy control = test: RBC sensitivity to cholesterol depletion: hemolysis and membrane deformability by ektacytometry, healthy RBC; conditions: 10 mM methyl-beta-cyclodextrine, 20 min at 37° C.
Procedure: as §1, §2

Compound | decrease in ROS ([1]; 1 μM lutein) [%] | % change in ROS MFI vs control ([1]; Lutein 1 μM) [%] | mean MFI (ROS) ([1]; Lutein 1 μM) | % change in ROS MFI vs control ([1]; Lutein 10 μM) [%] | mean MFI (ROS) ([1]; Lutein 10 μM) | cholesterol depleting effect and resulting hemolysis (RBC from SCD subjects) | hemolysis (RBC from healthy control) | RBC deformability (RBC from healthy control; ektacytometry at 3 Pa and 30 Pa)
CC1=C[C@H](O)CC(C)(C)[C@H]1/C=C/C(C)=C/C=C/C(C)=C/C=C/C=C(C)/C=C/C=C(C)/C=C/C1=C(C)C[C@@H](O)CC1(C)C [Lutein, lutein] | 9.2 | −9.2 | 38.3 | −36.4 | 26.8 |  |  | 
methyl-beta-cyclodextrine |  |  |  |  |  | resistant | marked hemolysis | significant decrease
